PMC3662788, “The Catalytic Roles of P185 and T188 and Substrate-Binding Loop Flexibility in 3α-Hydroxysteroid Dehydrogenase/Carbonyl Reductase from Comamonas testosteroni” (PLoS ONE, 2013)
Where a chain is given by its changes, count along the chain named. Names may count otherwise. “And” between values parts separate entries of the source, which are not always exact repeats. Identical values can stand only once.

Assays:
P185A mutant 3α-HSD/CR = target: T1, P185A mutant 3α-HSD/CR (Comamonas testosteroni, UniProt P80702, P185A); assay: Steady-state kinetics and primary isotope effects, oxidation of androsterone with NAD^+
T1 sequence (P80702 1-257 P185A): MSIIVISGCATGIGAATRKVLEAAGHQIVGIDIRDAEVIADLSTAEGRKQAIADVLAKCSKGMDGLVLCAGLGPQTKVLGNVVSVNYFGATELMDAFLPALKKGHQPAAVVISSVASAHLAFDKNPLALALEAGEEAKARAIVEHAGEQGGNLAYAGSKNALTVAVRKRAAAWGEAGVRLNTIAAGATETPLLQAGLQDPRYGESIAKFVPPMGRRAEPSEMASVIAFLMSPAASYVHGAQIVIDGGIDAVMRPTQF
Text: (§1) All reactions were initiated by the addition of an enzyme.
(§2) The data were fitted to Equation 2.

T188A mutant 3α-HSD/CR = target: T2, T188A mutant 3α-HSD/CR (Comamonas testosteroni, UniProt P80702, T188A); assay: biochemical; type: biochemical
T2 construct: His-tag (inferred from pET15b vector and Ni-NTA purification) (N); made in house; host or cells: Escherichia coli BL21(DE3)
Text: as §1, §2

T188S mutant 3α-HSD/CR = target: T3, T188S mutant 3α-HSD/CR (Comamonas testosteroni, UniProt P80702, T188S); assay: biochemical; type: biochemical
T3 construct: His-tag (inferred from pET15b vector and Ni-NTA purification) (N); made in house; host or cells: Escherichia coli BL21(DE3)
Text: as §1, §2

wild-type 3α-HSD/CR [1] = target: T4, wild-type 3α-HSD/CR (Comamonas testosteroni, UniProt P80702); settings: cited from earlier work
T4 sequence (P80702 1-257): T1 sequence (P80702 1-257 P185A) with A185P

wild-type 3α-HSD/CR [2] = target: T4, wild-type 3α-HSD/CR
wild-type 3α-HSD/CR [3] = target: T4, wild-type 3α-HSD/CR; settings: WT; pH 10.5; obtained from Table 1
Text: as §1, §2

[4] = substrate: NC(=O)c1ccc[n+]([C@@H]2O[C@H](COP(=O)([O-])OP(=O)(O)OC[C@H]3O[C@@H](n4cnc5c(N)ncnc54)[C@H](O)[C@@H]3O)[C@@H](O)[C@H]2O)c1; assay: purified protein, by the assay type; settings: other: P185A, 0.1 M Caps pH 10.5, 25°C
[5] = P185A, 0.1 M Caps pH 10.5, 25°C
[6] = WT, labeled vs unlabeled androsterone, 1.7 mM NAD^+, pH 10.5

T2 sequence (P80702 whole entry T188A): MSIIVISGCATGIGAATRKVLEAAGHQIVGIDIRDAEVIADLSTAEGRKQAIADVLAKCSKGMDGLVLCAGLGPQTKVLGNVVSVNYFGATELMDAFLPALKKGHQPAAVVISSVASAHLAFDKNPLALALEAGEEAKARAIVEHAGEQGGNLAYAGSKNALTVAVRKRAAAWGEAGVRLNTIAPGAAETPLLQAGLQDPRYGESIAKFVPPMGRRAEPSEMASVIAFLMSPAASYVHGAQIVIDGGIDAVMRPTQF
T3 sequence (P80702 whole entry T188S): as the sequence (P80702 whole entry T188A) above, with A188S counted along it

NC(=O)c1ccc[n+]([C@@H]2O[C@H](COP(=O)([O-])OP(=O)(O)OC[C@H]3O[C@@H](n4cnc5c(N)ncnc54)[C@H](O)[C@@H]3O)[C@@H](O)[C@H]2O)c1 [NAD^+]
Ki (P185A mutant 3α-HSD/CR): 1000 ± 300 µM
ΔΔGbmut/wt (differential ground-state binding energy, enzyme-NAD^+ complex) (P185A mutant 3α-HSD/CR; P185A vs wild-type, pH 10.5, Equation 4): 7.11 kJ/mol
kcat/Ka (NAD^+) (P185A mutant 3α-HSD/CR; [5]): 4.7e+06 ± 1.1e+06 M⁻¹ s⁻¹
Ki (T188A mutant 3α-HSD/CR): 1400 ± 200 µM
ΔΔGbmut/wt (differential ground-state binding energy, enzyme-NAD^+ complex) (T188A mutant 3α-HSD/CR; T188A vs wild-type, pH 10.5, Equation 4): 7.53 kJ/mol
Ki (T188S mutant 3α-HSD/CR): 1600 ± 300 µM
ΔΔGbmut/wt (differential ground-state binding energy, enzyme-NAD^+ complex) (T188S mutant 3α-HSD/CR; T188S vs wild-type, pH 10.5, Equation 4): 7.95 kJ/mol
Ka (Michaelis constant of NAD^+) (wild-type 3α-HSD/CR [1]; WT, 0.1 M Caps pH 10.5): 121 ± 26 µM
Ki (wild-type 3α-HSD/CR [1]; read-out: Kia (inhibition constant of NAD^+), WT, 0.1 M Caps pH 10.5): 60 ± 30 µM

[2H]C1(O)CCC2(C)C(CCC3C4CCC(=O)C4(C)CCC32)C1 (stereo not drawn) [deuterated androsterone, [3α-^2H]Androsterone]
apparent rate constant (kobs) for the deuteride transfer (wild-type 3α-HSD/CR [2]; 1 µM WT, 1 mM NAD^+, 17.5 µM deuterated androsterone, 0.1 M Caps pH 10.5, 25°C): 309 s⁻¹

C[C@]12CC[C@@H](O)C[C@@H]1CC[C@@H]1[C@@H]2CC[C@]2(C)C(=O)CC[C@@H]12 [androsterone, Androsterone]
kcat/KiaKb (kcat/KiNADKandrosterone) (wild-type 3α-HSD/CR [3]): 42 ×10^4 mM^−2s^−1
ΔΔG^‡ mut/wt (differential transition-state binding energy) (P185A mutant 3α-HSD/CR; P185A vs wild-type, pH 10.5, Equation 5): 4.02 kJ/mol
kcat (P185A mutant 3α-HSD/CR; [5]): 916 ± 61 s⁻¹
increase of kcat/Kandrosterone relative to wild-type (P185A mutant 3α-HSD/CR; P185A, pH 10.5): 3 fold
kcat/KiaKb (kcat/KiNADKandrosterone) (P185A mutant 3α-HSD/CR; P185A, pH 10.5, obtained from Table 1): 8.3×10^4 mM^−2s^−1
ΔΔG^‡ mut/wt (differential transition-state binding energy) (T188A mutant 3α-HSD/CR; T188A vs wild-type, pH 10.5, Equation 5): 7.95 kJ/mol
kcat (T188A mutant 3α-HSD/CR; T188A, 0.1 M Caps pH 10.5, 25°C): 1200 ± 133 s⁻¹
kcat/KiaKb (kcat/KiNADKandrosterone) (T188A mutant 3α-HSD/CR; T188A, pH 10.5, obtained from Table 1): 1.7×10^4 mM^−2s^−1
increase of Kandrosterone relative to wild-type (T188A mutant 3α-HSD/CR; mutation of T188 (T188A), pH 10.5): 14 fold
ΔΔG^‡ mut/wt (differential transition-state binding energy) (T188S mutant 3α-HSD/CR; T188S vs wild-type, pH 10.5, Equation 5): 8.37 kJ/mol
kcat (T188S mutant 3α-HSD/CR; T188S, 0.1 M Caps pH 10.5, 25°C): 1414 ± 149 s⁻¹
kcat/KiaKb (kcat/KiNADKandrosterone) (T188S mutant 3α-HSD/CR; T188S, pH 10.5, obtained from Table 1): 1.4×10^4 mM^−2s^−1
minimum rate constant for hydride transfer from undeuterated androsterone to NAD^+ (wild-type 3α-HSD/CR [2]; calculated from kobs 309 s^−1 and ^D(Vmax/Kandrosterone) 1.8): ≥ 556 s⁻¹
kcat (wild-type 3α-HSD/CR [1]; WT, 0.1 M Caps pH 10.5): 100 ± 8 s⁻¹
^D(V/K b) (primary kinetic isotope effect on Vmax/Kandrosterone) (wild-type 3α-HSD/CR [1]; [6]): 1.8 and 1.8±0.2
^DV (primary kinetic isotope effect on Vmax) (wild-type 3α-HSD/CR [1]; [6]): 1
^D2OVmax (solvent kinetic isotope effect) (wild-type 3α-HSD/CR [1]; wild-type): 2.1

B1: P185A mutant 3α-HSD/CR (Comamonas testosteroni; P185A) (protein)
chain: T1 sequence (P80702 1-257 P185A)
Km [4]: 195 ± 55 µM
